According to patent US20230202973A1, “BARNESIN A, DERIVATIVES AND USES THEREOF” (Leibniz-Institut Für Naturstoff-Forschung Und …, priority 2018, published 2023):
Square brackets hold non-standard residues; d marks the D form. Peptide text beside a SMILES is read from it. * marks the point of attachment. Sta = CC(C)C[C@H](N)[C@@H](O)CC(=O)O; Isovaleryl = CC(C)CC(=O)*

Legend:
[1] = Microsome stability assay; type: in vitro ADME; conditions: for Area rel. [%] (liver microsomes, PC): positive control, relative to t=0; for Area rel. [%] (liver microsomes, NC): 90 min, 1 µM, pH 7.4
Description: Microsome Stability Assay The liver is the main organ of drug metabolism in the body. Subcellular fractions such as liver microsomes are useful in vitro models of hepatic clearance as they contain many of the drug metabolising enzymes found in the liver. Liver microsomes are subcellular fractions which contain membrane bound drug metabolising enzymes. The microsomes are incubated with the test compound at 37° C. in the presence of the co-factors, which initiates the reaction. The reaction is terminated by the addition of organic solvents containing internal standard. Following centrifugation, the supernatant is analysed on the LC-MS/MS. The disappearance of test compound is monitored over certain time period. Here, a microsome stability assay was used to investigate the metabolism of the compounds; using this assay it is possible to measure in vitro the intrinsic clearance or to identify metabolites formed. For a standard assay the following solutions were used: 360 μL Microsomal solution (1.1 mg/mL in phosphate buffer), 360 μL NADP-regeneration mix (containing NADP (10 mM), MgCl2 (50 mM), glucose-6-phosphate (50 mM), glucose-6-phosphate dehydrogenase (50 U/ml)) and 40 μL phosphate buffer (100 mM, pH 7.4). Diclofenac (10 μL, 200 μM) was used as positive control (360 μL Microsomal solution, 360 μL NADP-regeneration mix and 40 μL Phosphate buffer) and phosphate buffer (360 μL Microsomal solution, 360 μL NADP-regeneration mix) served as negative control. […] The following procedure was applied: 40 μL of the working solution was added to a pre-incubated solution containing the microsomal solution and the NADP-regeneration mix at 37° C./1500 rpm. Samples were prepared as follows: […] Samples were mixed at 1500 rpm for 2 min, centrifuged for 2 min at 16.1 krcf. 5 uL of each sample was injected to a UPLC/HRMS system and the peak areas of the extracted ion chromatograms were determined

thermolysin = target: T1, thermolysin (Bacillus thermoproteolyticus, UniProt P00800); experiment: Protease assay with azocasein: thermolysin; type: biochemical; conditions: 10 mM
T1 construct: purchased Sigma-Aldrich P1512
T1 sequence (P00800 233-548): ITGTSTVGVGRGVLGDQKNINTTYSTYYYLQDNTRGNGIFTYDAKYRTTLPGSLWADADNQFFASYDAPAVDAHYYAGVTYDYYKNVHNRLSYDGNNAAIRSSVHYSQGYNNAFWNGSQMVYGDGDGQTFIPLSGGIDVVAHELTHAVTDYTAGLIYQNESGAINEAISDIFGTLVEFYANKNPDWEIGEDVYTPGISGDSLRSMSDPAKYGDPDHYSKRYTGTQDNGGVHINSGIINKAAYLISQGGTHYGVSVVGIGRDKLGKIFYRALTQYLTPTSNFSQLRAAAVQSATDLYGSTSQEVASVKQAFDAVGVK
Description: (§1) Protease Assays with azocasein: Protease inhibition assays against the proteases papain, ficin, trypsin, pepsin and thermolysin were performed according to the protocol of Garcia-Carreño (loc. cit.) in a reaction buffer containing 25 mM TRIS-HCl, 0.15 M NaCl, pH 7.2 (or pH 3.5 for aspartic protease). The total assay volume was 47 μL buffer with 2 μL of the protease as well as 1 μL of suitable inhibitor or corresponding inhibitor solvent (100% MeoH or water). Final concentration of proteases was as follows: 2 mg/mL for papain (Sigma-Aldrich, P4762), 600 μg/mL for ficin (Sigma-Aldrich, F6008), 80 μg/mL for trypsin (Thermo Fisher, 23266), 60 mg/mL for pepsin (Sigma-Aldrich P6887)) and 2 μg/mL for thermolysin (Sigma-Aldrich, P1512).
(§2) Inhibitors were dissolved in 100% MeOH or water and added to the assay (1 μL); final concentration: 2% MeOH. Samples of control inhibitors were prepared as follows: (1) serine protease (trypsin): PMFS (2 mM) and soybean trypsin inhibitor (240 μM) (Sigma-Aldrich, T1021), (2) cysteine proteases (papain and ficin): iodacetamide (2 mM), (3) […] (pepsin): pepstatin A (1 μg/mL) (Sigma-Aldrich, P4265), (4) metalloprotease (thermolysin): EDTA (10 mM). […] Negative controls were performed with protease alone (without inhibitor) and MeOH at a final concentration of 2% (reference for activity of 100%). Extract absorbance controls were performed using inhibitor (1 μL in MeOH) without protease. Blanks were performed using 49 μL buffer and 1 μL MeOH.
(§3) Samples were incubated with buffer and suitable inhibitor (or without for negative controls) for 1 h at r.t. and the reaction was started afterward by adding 50 μl of […] substrate and incubated for 1 h at 37° C. After stopping the reaction with trichloracetic acid (TCA), the separation of the precipitate was accomplished by centrifugation at 6500 g for 5 min. The hydrolyzed substrate supernatant was incubated in an equal volume of 0.5 N NaOH for 5 min and the absorbance was measured at 440 nm. OD values of the protease control without inhibitor were used as reference for a 100% activity.
(§4) The log IC50 values were determined using the standard curves analyzing tool with four parameter logistic equation of SigmaPlot12 with technical triplicates. Propagation of error was calculated using the standard error and log IC50 values where the equation of error propagation is defined as Δy=0.43Δx/x.

Cathepsin B = Cathepsin B (Homo sapiens, UniProt P07858); experiment: Activity test against cathepsin B (initial screen, Table 5); type: biochemical; design: dose or concentration left out as unconfirmed
Description: (§5) Activity Tests Against Cathepsin B, Cathepsin L and Rhodesain.
(§6) The determination of the activity of the inhibitors against hCatL and RD was performed in fluorescence-based assays in accordance with the assays described in Giroud et al., ChemMedChem 12 (2017), 257-270 and Schirmeister, Bioorganic & Medicinal Chemistry Letters 27 (2017) 45-50. The biological activities against hCatL were determined using Cbz-Phe-Arg-AMC as substrate, which releases AMC (7-amino-4-methylcoumarin) after amide bond cleavage by the enzyme. The proteolytic activity of the enzyme can be monitored spectrophotometrically by the increase of fluorescence intensity by release of AMC (emission at 460 nm) upon hydrolysis. An initial screen at an inhibitor concentration […] was performed to identify ligands with an inhibition of hCatL and RD higher than 80%.

hCatL = hCatL (Homo sapiens, UniProt P07711); experiment: Fluorescence-based activity test against cathepsin L (Cbz-Phe-Arg-AMC); type: biochemical; design: dose or concentration left out as unconfirmed
hCatL, sequence (P07711 114-333): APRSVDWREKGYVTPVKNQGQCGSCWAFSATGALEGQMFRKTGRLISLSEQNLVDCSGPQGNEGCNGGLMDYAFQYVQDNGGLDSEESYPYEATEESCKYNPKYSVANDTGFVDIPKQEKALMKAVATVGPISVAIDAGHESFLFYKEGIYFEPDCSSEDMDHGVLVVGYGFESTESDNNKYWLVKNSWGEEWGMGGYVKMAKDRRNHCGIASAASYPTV
Description: as §5, §6

Glutathione (GSH) assay = type: in vitro ADME; conditions: relative to t=0; for Area rel. [%] (GSH assay, NC): negative control: test item in phosphate buffer without GSH, time 90 min; for Area rel. [%] (GSH assay): with GSH, 37° C.
Description: Procedure: A standard GSH assay includes a phosphate buffer (720 μL), a GSH solution (40 μL, 100 mM) and the test solution of the test compound (20 μM in 10% DMSO in phosphate buffer (100 mM, pH 7.4)). As negative control (NC) serves the test item (20 μM in 10% DMSO in phosphate buffer (100 mM, pH 7.4) in phosphate buffer (760 μL).
Samples are prepared as follows: phosphate buffer (720 μL) and GSH solution (40 μL, 100 mM) were preincubated at 37° C., and 40 μL of the test item solution (or internal standard) added. Then […] of the assay mixture were mixed with 100 μL ACN were at the following time points: t=0, 30 and 90 min; in case of the test item, t=0 and 90 min in case of PC or NC. The samples were mixed for 2 min at 150 rpm, centrifuged at 16.1 (krcf). 5 μL of each samples were injected to a UPLC/HRMS system. The peak areas of the extracted ion chromatograms were determined using the standard software.

pepsin = target: T2, pepsin (Sus scrofa, UniProt P00791); experiment: Protease assay with azocasein: pepsin; type: biochemical; conditions: 1 μg/mL
T2 construct: purchased Sigma-Aldrich P6887
T2 sequence (P00791 60-385): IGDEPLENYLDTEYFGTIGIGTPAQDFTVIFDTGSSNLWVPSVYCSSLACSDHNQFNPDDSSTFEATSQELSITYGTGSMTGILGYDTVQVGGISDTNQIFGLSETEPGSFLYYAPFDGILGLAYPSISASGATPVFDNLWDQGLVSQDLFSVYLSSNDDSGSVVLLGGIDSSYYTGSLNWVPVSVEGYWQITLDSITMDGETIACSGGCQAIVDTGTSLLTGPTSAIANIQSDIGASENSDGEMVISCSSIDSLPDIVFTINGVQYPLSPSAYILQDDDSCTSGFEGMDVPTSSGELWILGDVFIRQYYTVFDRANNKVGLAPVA
Description: as §1, §2, §3, §4

SMILES: O=C(O)Cc1ccccc1Nc1c(Cl)cccc1Cl [Diclo, Diclofenac, reference compound]
- Area rel. [%] (liver microsomes, PC) ([1]; time 10 min): 49.0%
- Area rel. [%] (liver microsomes, PC) ([1]; time 35 min): 3.8%

SMILES: O=C(O)CN(CCN(CC(=O)O)CC(=O)O)CC(=O)O [EDTA, reference compound]
- inhibited enzyme activity (thermolysin), control inhibitor (thermolysin): > 95%

SMILES: CCCCC/C=C/C(=O)N[C@@H](Cc1ccc(O)cc1)C(=O)N[C@H](/C=C/C(=O)O)CCCNC(=N)N [drawing 45]
- inhibition (Cathepsin B): 50%
- inhibition (hCatL): 95%

SMILES: CCCCC/C=C/C(=O)N[C@@H](Cc1ccc(O)cc1)C(=O)N[C@@H](/C=C/C(=O)O)CCCCN [drawing 46]
- inhibition (Cathepsin B): 73%
- inhibition (hCatL): 96%

SMILES: CCCCC/C=C/C(=O)N[C@@H](Cc1ccccc1)C(=O)N[C@H](/C=C/C(=O)O)CCCNC(=N)N [drawing 47]
- inhibition (Cathepsin B): 41%
- inhibition (hCatL): 90%

SMILES: CCCCC/C=C/C(=O)N[C@@H](Cc1ccc(O)cc1)C(=O)N[C@@H](/C=C/C(=O)O)CCCNC(=N)N [drawing 48]
- inhibition (Cathepsin B): 15%
- inhibition (hCatL): 20%

SMILES: CCCCCCCC(=O)N[C@@H](Cc1ccc(O)cc1)C(=O)N[C@H](/C=C/C(=O)O)CCCNC(=N)N [drawing 50]
- inhibition (Cathepsin B): 30%
- inhibition (hCatL): 80%

SMILES: CCCCC/C=C/C(=O)N[C@@H](Cc1ccc(O)cc1)C(=O)N[C@H](/C=C/C(=O)O)CCCNC(=N)N [drawing 51]
- Area rel. [%] (GSH assay, NC) (Glutathione (GSH) assay): 91.9%
- Area rel. [%] (GSH assay) (Glutathione (GSH) assay; pH 7.4, time 30 min): 93.3%
- Area rel. [%] (GSH assay) (Glutathione (GSH) assay; pH 7.4, time 90 min): 94.2%

SMILES: CCCCC/C=C/C(=O)N[C@@H](Cc1ccc(O)cc1)C(=O)N[C@@H](/C=C/C(=O)O)CCCCN [drawing 52]
- Area rel. [%] (GSH assay, NC) (Glutathione (GSH) assay): 103.9%
- Area rel. [%] (GSH assay) (Glutathione (GSH) assay; pH 7.4, time 30 min): 104.3%
- Area rel. [%] (GSH assay) (Glutathione (GSH) assay; pH 7.4, time 90 min): 98.0%

SMILES: CCCCC/C=C/C(=O)N[C@@H](Cc1ccccc1)C(=O)N[C@H](/C=C/C(=O)O)CCCNC(=N)N [drawing 53]
- Area rel. [%] (GSH assay, NC) (Glutathione (GSH) assay): 101.8%
- Area rel. [%] (GSH assay) (Glutathione (GSH) assay; pH 7.4, time 30 min): 102.7%
- Area rel. [%] (GSH assay) (Glutathione (GSH) assay; pH 7.4, time 90 min): 106.2%

SMILES: CCCCC/C=C/C(=O)N[C@H](Cc1ccc(O)cc1)C(=O)N[C@H](/C=C/C(=O)O)CCCNC(=N)N [drawing 55]
- Area rel. [%] (GSH assay, NC) (Glutathione (GSH) assay): 91.9%
- Area rel. [%] (GSH assay) (Glutathione (GSH) assay; pH 7.4, time 90 min): 98.6%

SMILES: CC(=O)N[C@@H](Cc1ccc(O)cc1)C(=O)N[C@H](/C=C/C(=O)O)CCCNC(=N)N [drawing 58]
- Area rel. [%] (GSH assay, NC) (Glutathione (GSH) assay): 108.9%
- Area rel. [%] (GSH assay) (Glutathione (GSH) assay; pH 7.4, time 90 min): 112.8%

SMILES: CCCCC/C=C/C(=O)N[C@@H](Cc1ccc(O)cc1)C(=O)N[C@H](/C=C/C(=O)O)CCCNC(=N)N [drawing 59]
- Area rel. [%] (liver microsomes, NC) [1]: 92.3%

SMILES: CCCCC/C=C/C(=O)N[C@@H](Cc1ccc(O)cc1)C(=O)N[C@@H](/C=C/C(=O)O)CCCCN [drawing 60]
- Area rel. [%] (liver microsomes, NC) [1]: 95.7%

SMILES: CCCCC/C=C/C(=O)N[C@@H](Cc1ccccc1)C(=O)N[C@H](/C=C/C(=O)O)CCCNC(=N)N [drawing 61]
- Area rel. [%] (liver microsomes, NC) [1]: 89.2%

SMILES: CCCCC/C=C/C(=O)N[C@@H](Cc1ccc(O)cc1)C(=O)N[C@@H](/C=C/C(=O)O)CCCNC(=N)N [drawing 62]
- Area rel. [%] (liver microsomes, NC) [1]: 102.8%

SMILES: CCCCC/C=C/C(=O)N[C@H](Cc1ccc(O)cc1)C(=O)N[C@H](/C=C/C(=O)O)CCCNC(=N)N [drawing 63]
- Area rel. [%] (liver microsomes, NC) [1]: 105.8%

SMILES: CCCCCCCC(=O)N[C@@H](Cc1ccc(O)cc1)C(=O)N[C@H](/C=C/C(=O)O)CCCNC(=N)N [drawing 64]
- Area rel. [%] (liver microsomes, NC) [1]: 104.3%

SMILES: CCCCCCCC(=O)N[C@@H](Cc1ccc(O)cc1)C(=O)N[C@@H](CCCNC(=N)N)CCC(=O)O [drawing 65]
- Area rel. [%] (liver microsomes, NC) [1]: 99.5%

SMILES: CC(=O)N[C@@H](Cc1ccc(O)cc1)C(=O)N[C@H](/C=C/C(=O)O)CCCNC(=N)N [drawing 66]
- Area rel. [%] (liver microsomes, NC) [1]: 111.9%

SMILES: CC(C)CC(=O)N[C@H](C(=O)N[C@H](C(=O)N[C@@H](CC(C)C)[C@@H](O)CC(=O)N[C@@H](C)C(=O)N[C@@H](CC(C)C)[C@@H](O)CC(=O)O)C(C)C)C(C)C [pepstatin A, reference compound] (Isovaleryl-VV[Sta]A[Sta]-OH)
- inhibited enzyme activity (pepsin), control inhibitor (pepsin): > 95%
